Data reported in US11560391B2, “Sulfonylurea compounds as inhibitors of interleukin-1 activity” (Genentech, Inc., priority 2018, dated 2023).

Tested on: THP-1 ASC-GFP cells
Assay: THP-1 ASC-GFP speck assay (NLRP3 inflammasome activation, nigericin)
Type: cell-based
Conditions: THP1-ASC-GFP; PMA-differentiated, LPS primed, 10 μM nigericin
Description: THP-1 ASC-GFP cell line was purchased from Invivogen, San Diego, for infammasome activation assay. THP-1 ASC-GFP cells stably express a 37.6 kDa ASC::GFP fusion protein that enables monitoring of spec formation by microscopy after activation of NLRP3 dependent inflammasome pathway. Cells were maintained at a density of 600,000 cells/mL in growth media consisting of RPMI 1640, 2 mM L-glutamine, 25 mM HEPES and 10% heat inactivated fetal bovine serum at 37° C. and 5% CO2. Cells were passaged every 3-4 days and used for assays for up to 20 passages.
THP-1 ASC-GFP cells were collected by centrifuging cells at 800 RPM for 5 minutes. Cell culture supernatant was removed and cells were re-suspended in fresh media at density of 1×10^6 cells/mL in assay media consisting of RPMI 1640, 2 mM L-glutamine, 25 mM HEPES and 10% heat inactivated fetal bovine serum. Phorbol 12-myristate 13-acetate (PMA) (Invivogen,tlrl-pma) was added to the cell suspension at a final concentration of 500 ng/ml and mixed thoroughly. 40,000 cells were added per well of a 384 well plate and differentiated into macrophages overnight at 37° C. and 5% CO2. Cells were primed with 1 μg/mL of lipopolysaccharide (Invivogen Ultrapure lipopolysaccharide from E. coli, tlrl-3pelps) in assay media for 3 hours at 37° C. and 5% CO2. After priming, media was removed and THP-1 ASC-GFP cells were preincubated with serially diluted test compounds with starting concentration of 40 μM followed by 2-fold dilution for a 20-point curve or vehicle (DMSO) for 30 min in assay media at 37° C. and 5% CO2. Cells were then stimulated with 10 μM nigericin (Invivogen, tlrl-nig-5) for 90 min at 37° C. and 5% CO2 to activate NLRP3 dependent inflammasome pathway and spec formation. After stimulation, cells were fixed with 4.8% paraformaldehyde (Electron Microscopy Sciences #15710-S) and incubated at room temperature for 15 min. Cells were then washed 3-times with 100 μL of phosphate buffered saline and permeabilized in the presence of premeablization/block buffer for 20 min at room temperature. Cells were then washed 3-times with 100 μL phosphate buffered saline and incubated for 1 hr at room temperature in the presence of hoechst. After staining with Hoechst, cells were washed 3-times with 100 μL phosphate buffered saline and imaged for ASC spec formation.
THP-1 ASC-GFP cells were imaged in 488 and Hoechst channels. Hoechst channel was used for cell count and 488 channel was used to identify number of GFP ASC specks in imaged fields. Percentage of cells with a spec was calculated by dividing the number of GFP positive spots by total number of cells.

| SMILES | IC50 [nM] |
| --- | --- |
| CN[C@@H]1COc2c(S(=O)(=O)NC(=O)Nc3c(C(C)C)nn(C)c3C(C)C)cnn2C1 [Example 73a, (S)—N-((3,5-diisopropyl-1-methyl-1H-pyrazol-4-yl)carbamoyl)-6-(methylamino)-6,7-dihydro-5H-pyrazolo[5,1-b][1,3]oxazine-3-sulfonamide, ammonia] | 8700 |
| CC(C)c1nn(C)c(C(C)C)c1NC(=O)NS(=O)(=O)c1cnn2c1OCC(C)(C)C2 [Example 68, N-((3,5-diisopropyl-1-methyl-1H-pyrazol-4-yl)carbamoyl)-6,6-dimethyl-6,7-dihydro-5H-pyrazolo[5,1-b][1,3]oxazine-3-sulfonamide, ammonia] | 1500 |
| CO[C@@H]1COc2c(S(=O)(=O)NC(=O)Nc3c(C(C)C)nn(CC(F)F)c3C(C)C)cnn2C1 [Example 62a, (S)—N-((1-(2,2-difluoroethyl)-3,5-diisopropyl-1H-pyrazol-4-yl)carbamoyl)-6-methoxy-6,7-dihydro-5H-pyrazolo[5,1-b][1,3]oxazine-3-sulfonamide, ammonia] | 640 |
| CC(C)c1nn(CC(F)F)c(C(C)C)c1NC(=O)NS(=O)(=O)c1cnn2c1OCCC2 [Example 63, N-((1-(2,2-difluoroethyl)-3,5-diisopropyl-1H-pyrazol-4-yl)carbamoyl)-6,7-dihydro-5H-pyrazolo[5,1-b][1,3]oxazine-3-sulfonamide, ammonia] | 350 |
| CC(C)c1nn(C(F)(F)F)c(C(C)C)c1NC(=O)NS(=O)(=O)c1cnn2c1OCCC2 [Example 67, N-((3,5-diisopropyl-1-(trifluoromethyl)-1H-pyrazol-4-yl)carbamoyl)-6,7-dihydro-5H-pyrazolo[5,1-b][1,3]oxazine-3-sulfonamide, ammonia] | 170 |
| CC(C)c1cc(C(F)(F)F)nc(C(C)C)c1NC(=O)NS(=O)(=O)c1cnn2c1OC[C@@H](N(C)C)C2 [Example 76a, (S)—N-((2,4-diisopropyl-6-(trifluoromethyl)pyridin-3-yl)carbamoyl)-6-(dimethylamino)-6,7-dihydro-5H-pyrazolo[5,1-b][1,3]oxazine-3-sulfonamide] | 560 |
| COc1cc(-c2cc(C(F)(F)F)nc(C(C)C)c2NC(=O)NS(=O)(=O)c2cnn3c2OCCC3)ccn1 [Example 69, Sodium N-((2-isopropyl-2′-methoxy-6-(trifluoromethyl)-[4,4′-bipyridin]-3-yl)carbamoyl)-6,7-dihydro-5H-pyrazolo[5,1-b][1,3]oxazine-3-sulfonamide] | 520 |
| CC(C)c1nn(CC(F)(F)F)c(C(C)C)c1NC(=O)NS(=O)(=O)c1cnn2c1OCC(C)(C)C2 [Example 75, N-((3,5-diisopropyl-1-(2,2,2-trifluoroethyl)-1H-pyrazol-4-yl)carbamoyl)-6,6-dimethyl-6,7-dihydro-5H-pyrazolo[5,1-b][1,3]oxazine-3-sulfonamide, ammonia] | 420 |
| COc1cc(-c2nc(C(F)(F)F)cc(C(C)C)c2NC(=O)NS(=O)(=O)c2cnn3c2OCCC3)ccn1 [Example 74, Sodium N-((4-isopropyl-2′-methoxy-6-(trifluoromethyl)-[2,4′-bipyridin]-3-yl)carbamoyl)-6,7-dihydro-5H-pyrazolo[5,1-b][1,3]oxazine-3-sulfonamide] | 340 |
| CN[C@@H]1COc2c(S(=O)(=O)NC(=O)Nc3c(C(C)C)nn(CC(F)F)c3C(C)C)cnn2C1 [Example 70a, (S)—N-((1-(2,2-difluoroethyl)-3,5-diisopropyl-1H-pyrazol-4-yl)carbamoyl)-6-(methylamino)-6,7-dihydro-5H-pyrazolo[5,1-b][1,3]oxazine-3-sulfonamide, ammonia] | 4100 |
| CC(C)c1nn(CC(F)F)c(C(C)C)c1NC(=O)NS(=O)(=O)c1cnn2c1OCC(C)(C)C2 [Example 57, N-((1-(2,2-difluoroethyl)-3,5-diisopropyl-1H-pyrazol-4-yl)carbamoyl)-6,6-dimethyl-6,7-dihydro-5H-pyrazolo[5,1-b][1,3]oxazine-3-sulfonamide, ammonia] | 560 |
| CC(C)c1nn(C(F)(F)F)c(C(C)C)c1NC(=O)NS(=O)(=O)c1cnn2c1OCC(C)(C)C2 [Example 79, N-((3,5-diisopropyl-1-(trifluoromethyl)-1H-pyrazol-4-yl)carbamoyl)-6,6-dimethyl-6,7-dihydro-5H-pyrazolo[5,1-b][1,3]oxazine-3-sulfonamide] | 740 |
| CO[C@@H]1COc2c(S(=O)(=O)NC(=O)Nc3c(C(C)C)nn(C(F)(F)F)c3C(C)C)cnn2C1 [Example 78a, (S)—N-((3,5-diisopropyl-1-(trifluoromethyl)-1H-pyrazol-4-yl)carbamoyl)-6-methoxy-6,7-dihydro-5H-pyrazolo[5,1-b][1,3]oxazine-3-sulfonamide] | 71 |
| CO[C@@H]1COc2c(S(=O)(=O)NC(=O)Nc3c(C(C)C)cc(C(F)(F)F)nc3C(C)C)cnn2C1 [Example 80a, (S)—N-((2,4-diisopropyl-6-(trifluoromethyl)pyridin-3-yl)carbamoyl)-6-methoxy-6,7-dihydro-5H-pyrazolo[5,1-b][1,3]oxazine-3-sulfonamide, ammonia] | 150 |
| CC(C)c1nn(CC(F)(F)F)c(C(C)C)c1NC(=O)NS(=O)(=O)c1cnn2c1OCCC2 [Example 58, N-((3,5-diisopropyl-1-(2,2,2-trifluoroethyl)-1H-pyrazol-4-yl)carbamoyl)-6,7-dihydro-5H-pyrazolo[5,1-b][1,3]oxazine-3-sulfonamide, ammonia] | 200 |
| CC(C)c1cc(OC2CC2)nc(C(C)C)c1NC(=O)NS(=O)(=O)c1cnn2c1OCCC2 [Example 81, Sodium N-((6-cyclopropoxy-2,4-diisopropylpyridin-3-yl)carbamoyl)-6,7-dihydro-5H-pyrazolo[5,1-b][1,3]oxazine-3-sulfonamide] | 8200 |
| CN[C@@H]1COc2c(S(=O)(=O)NC(=O)Nc3c(C(C)C)nn(CC(F)(F)F)c3C(C)C)cnn2C1 [Example 72a, (S)—N-((3,5-diisopropyl-1-(2,2,2-trifluoroethyl)-1H-pyrazol-4-yl)carbamoyl)-6-(methylamino)-6,7-dihydro-5H-pyrazolo[5,1-b][1,3]oxazine-3-sulfonamide, ammonia] | 2500 |
| CO[C@@H]1COc2c(S(=O)(=O)NC(=O)Nc3c(C(C)C)nn(CC(F)(F)F)c3C(C)C)cnn2C1 [Example 59a, (S)—N-((3,5-diisopropyl-1-(2,2,2-trifluoroethyl)-1H-pyrazol-4-yl)carbamoyl)-6-methoxy-6,7-dihydro-5H-pyrazolo[5,1-b][1,3]oxazine-3-sulfonamide, ammonia] | 170 |
| CCn1nc(C(C)C)c(NC(=O)NS(=O)(=O)c2cnn3c2OCC(C)(C)C3)c1C(C)C [Example 65, N-((1-ethyl-3,5-diisopropyl-1H-pyrazol-4-yl)carbamoyl)-6,6-dimethyl-6,7-dihydro-5H-pyrazolo[5,1-b][1,3]oxazine-3-sulfonamide, ammonia] | 1400 |
| CC(C)c1cc(C(F)(F)F)nc(C(C)C)c1NC(=O)NS(=O)(=O)c1cnn2c1OCC(C)(C)C2 [Example 82, N-((2,4-diisopropyl-6-(trifluoromethyl)pyridin-3-yl)carbamoyl)-6,6-dimethyl-6,7-dihydro-5H-pyrazolo[5,1-b][1,3]oxazine-3-sulfonamide] | 1400 |
| CC(C)c1cc(OC(F)(F)F)nc(C(C)C)c1NC(=O)NS(=O)(=O)c1cnn2c1OCCC2 [Example 71, Sodium N-((2,4-diisopropyl-6-(trifluoromethoxy)pyridin-3-yl)carbamoyl)-6,7-dihydro-5H-pyrazolo[5,1-b][1,3]oxazine-3-sulfonamide] | 1900 |
| CO[C@@H]1COc2c(S(=O)(=O)NC(=O)Nc3c4c(nn3C(C)C)CCC4)cnn2C1 [Example 60a, Sodium (S)—N-((2-isopropyl-2,4,5,6-tetrahydrocyclopenta[c]pyrazol-3-yl)carbamoyl)-6-methoxy-6,7-dihydro-5H-pyrazolo[5,1-b][1,3]oxazine-3-sulfonamide] | 570 |
| CC(C)n1nc2c(c1NC(=O)NS(=O)(=O)c1cnn3c1OC[C@@H](N(C)C)C3)CCC2 [Example 77a, (S)-6-(dimethylamino)-N-((2-isopropyl-2,4,5,6-tetrahydrocyclopenta[c]pyrazol-3-yl)carbamoyl)-6,7-dihydro-5H-pyrazolo[5,1-b][1,3]oxazine-3-sulfonamide] | 1900 |
| CN[C@@H]1COc2c(S(=O)(=O)NC(=O)Nc3c(C(C)C)nn(C(F)(F)F)c3C(C)C)cnn2C1 [Example 64a, (S)—N-((3,5-diisopropyl-1-(trifluoromethyl)-1H-pyrazol-4-yl)carbamoyl)-6-(methylamino)-6,7-dihydro-5H-pyrazolo[5,1-b][1,3]oxazine-3-sulfonamide, ammonia] | 240 |
